From PMC10504751, “Chalcone/1,3,4-Oxadiazole/Benzimidazole hybrids as novel anti-proliferative agents inducing apoptosis and inhibiting EGFR & BRAFV^600E” (BMC Chemistry, 2023)
Where two headings read alike, the source gives them in different places.

Legend:
Assay type in all cases: cell-based
HT-29 = assay: Propidium iodide anti-proliferative assay; conditions: Homo sapiens, 48 h incubation, read-out: IC50 ± SEM HT-29
Procedure, shortened: (§1)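 Cells seeded at 3000-7500 cells/well and grown 24 h at 37 °C, then treated with compounds (10 µM in 0.1% DMSO, triplicate; IC50 runs at varied concentrations) for 48 h. PI added, plates frozen 24 h at -80 °C and thawed, fluorescence read at 530/620 nm; % cytotoxicity versus 0.1% DMSO control.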

MCF-7 = assay: Propidium iodide anti-proliferative assay; conditions: Homo sapiens, MCF7; 48 h incubation; read-out: IC50 ± SEM MCF-7
Procedure, shortened: as §1

Panc-1 = assay: Propidium iodide anti-proliferative assay; conditions: Homo sapiens, 48 h incubation, read-out: IC50 ± SEM Panc-1
Procedure, shortened: as §1

A-549 = assay: Propidium iodide anti-proliferative assay; conditions: Homo sapiens, A549; 48 h incubation; read-out: IC50 ± SEM A-549
Procedure, shortened: as §1

HOP-62 = assay: NCI one-dose SRB anti-proliferative screen; conditions: Homo sapiens, read-out: Cell growth inhibition %
Description: (§2) The twenty-four synthesized compounds were submitted to the National Cancer Institute (NCI), USA. Eighteen hybrids 7a-h, 7k-r, 7u, and 7v were selected by NCI for one-dose assessment of their anti-proliferative activities at 10 µM dose by Sulforhodamine B colorimetric assay. The assessment was performed in 60 cell lines derived from nine tumor subpanels, comprising lung, leukemia, melanoma, colon, renal, CNS, prostate, breast, and ovarian cancer cell lines.
(§3) The methodology of the NCI anti-proliferative screening has been described in details elsewhere (http://www.dtp.nci.nih.gov).

SR = assay: NCI one-dose SRB anti-proliferative screen; conditions: Homo sapiens, read-out: Cell growth inhibition %
Description: as §2, §3

786-0 = assay: NCI one-dose SRB anti-proliferative screen; conditions: Homo sapiens, read-out: Cell growth inhibition %
Description: as §2, §3

MDA-MB-468 = assay: NCI one-dose SRB anti-proliferative screen; conditions: Homo sapiens, read-out: Cell growth inhibition %
Description: as §2, §3

RPMI-8226 = assay: NCI one-dose SRB anti-proliferative screen; conditions: Homo sapiens, read-out: Cell growth inhibition %
Description: as §2, §3

CAKI-1 = assay: NCI one-dose SRB anti-proliferative screen; conditions: Homo sapiens, read-out: Cell growth inhibition %
Description: as §2, §3

A498 = assay: NCI one-dose SRB anti-proliferative screen; conditions: Homo sapiens, read-out: Cell growth inhibition %
Description: as §2, §3

EKVX = assay: NCI one-dose SRB anti-proliferative screen; conditions: Homo sapiens, read-out: Cell growth inhibition %
Description: as §2, §3

MDA-MB-435 = assay: NCI one-dose SRB anti-proliferative screen; conditions: Homo sapiens, read-out: Cell growth inhibition %
Description: as §2, §3

HS 578T = assay: NCI one-dose SRB anti-proliferative screen; conditions: Homo sapiens, read-out: Cell growth inhibition %
Description: as §2, §3

UACC-62 = assay: NCI one-dose SRB anti-proliferative screen; conditions: Homo sapiens, read-out: Cell growth inhibition %
Description: as §2, §3

OVCAR-3 = assay: NCI one-dose SRB anti-proliferative screen; conditions: Homo sapiens, read-out: Cell growth inhibition %
Description: as §2, §3

SN12C = assay: NCI one-dose SRB anti-proliferative screen; conditions: Homo sapiens, read-out: Cell growth inhibition %
Description: as §2, §3

SK-MEL-2 = assay: NCI one-dose SRB anti-proliferative screen; conditions: Homo sapiens, read-out: Cell growth inhibition %
Description: as §2, §3

ACHN = assay: NCI one-dose SRB anti-proliferative screen; conditions: Homo sapiens, read-out: Cell growth inhibition %
Description: as §2, §3

U251 = assay: NCI one-dose SRB anti-proliferative screen; conditions: Homo sapiens, U-251, read-out: Cell growth inhibition %
Description: as §2, §3

NCI-H226 = assay: NCI one-dose SRB anti-proliferative screen; conditions: Homo sapiens, read-out: Cell growth inhibition %
Description: as §2, §3

[1] = HOP-62, Non-Small Cell Lung Cancer, NCI one dose
[2] = 786-0, Renal cancer, NCI one dose
[3] = MDA-MB-468, Breast cancer, NCI one dose
[4] = RPMI-8226, Leukemia, NCI one dose
[5] = CAKI-1, Renal cancer, NCI one dose
[6] = A498, Renal cancer, NCI one dose
[7] = EKVX, Non-Small Cell Lung Cancer, NCI one dose
[8] = MDA-MB-435, Melanoma, NCI one dose
[9] = HS 578T, Breast cancer, NCI one dose
[10] = UACC-62, Melanoma, NCI one dose
[11] = OVCAR-3, Ovarian Cancer, NCI one dose
[12] = SN 12C, Renal cancer, NCI one dose
[13] = SK-MEL-2, Melanoma, NCI one dose
[14] = ACHN, Renal cancer, NCI one dose
[15] = NCI-H226, Non-Small Cell Lung Cancer, NCI one dose

Row | SMILES | IC50 (HT-29) [nM] | IC50 (MCF-7) [nM] | IC50 (Panc-1) [nM] | IC50 (A-549) [nM] | inhibition at 10 µM (HOP-62; [1]) [%] | inhibition at 10 µM (SR; SR, Leukemia, NCI one dose) [%] | inhibition at 10 µM (786-0; [2]) [%] | inhibition at 10 µM (MDA-MB-468; [3]) [%] | inhibition at 10 µM (RPMI-8226; [4]) [%] | inhibition at 10 µM (CAKI-1; [5]) [%] | inhibition at 10 µM (A498; [6]) [%] | inhibition at 10 µM (EKVX; [7]) [%] | inhibition at 10 µM (MDA-MB-435; [8]) [%] | inhibition at 10 µM (HS 578T; [9]) [%] | inhibition at 10 µM (UACC-62; [10]) [%] | inhibition at 10 µM (OVCAR-3; [11]) [%] | inhibition at 10 µM (SN12C; [12]) [%] | inhibition at 10 µM (SK-MEL-2; [13]) [%] | inhibition at 10 µM (ACHN; [14]) [%] | inhibition at 10 µM (U251; U251, CNS Cancer, NCI one dose) [%] | other results
1 | COc1ccc(-c2nc3cc(-c4nnc(SCC(=O)Nc5ccc(C(=O)/C=C/c6ccc(OC)c(OC)c6)cc5)o4)ccc3[nH]2)cc1 [Compound 7n, 2-{5-[2-(4-Methoxyphenyl)-1 H-benzo[d]imidazol-5-yl]-1,3,4-oxadiazol-2-ylthio}-N-{4-[(E)-3-(3,4-dimethoxyphenyl)acryloyl]phenyl}acetamide] | 2200 ± 600 | 1650 ± 300 | 2050 ± 500 | 1900 ± 600 | 5.22 | 73.6 | 8.7 | 10.7 | 32.3 | 1.11 | 0 | 4.36 | 6.15 | 7.35 | 15.8 | 14.3 | 8.67 | 6.27 | 10.7 | 25.3 | inhibition at 10 µM (NCI-H226; [15]): 3.76%
2 | COc1ccc(-c2nc3cc(-c4nnc(SCC(=O)Nc5ccc(C(=O)/C=C/c6cc(OC)c(OC)c(OC)c6)cc5)o4)ccc3[nH]2)cc1 [Compound 7o, 2-{5-[2-(4-Methoxyphenyl)-1 H-benzo[d]imidazol-5-yl]-1,3,4-oxadiazol-2-ylthio}-N-{4-[(E)-3-(3,4,5-trimethoxyphenyl)acryloyl]phenyl}acetamide] | 8600 ± 400 | 7100 ± 600 | 8200 ± 1200 | 7600 ± 300 | 0 | 15.2 | 0 | 0 | 23.2 | 1.83 | 0 | 0 | 0 | 0 | 5.12 | 0 | 0 | 0 | 0 | 3.23 | inhibition at 10 µM (NCI-H226; [15]): 2.19%
3 | COc1ccc(-c2nc3cc(-c4nnc(SCC(=O)Nc5ccc(C(=O)/C=C/c6ccccc6)cc5)o4)ccc3[nH]2)cc1OC [Compound 7p, 2-{5-[2-(3,4-Dimethoxyphenyl)-1 H-benzo[d]imidazol-5-yl]-1,3,4-oxadiazol-2-ylthio}-N-{4-[(E)-3-phenylacryloyl]phenyl}acetamide] | 3300 ± 400 | 2100 ± 200 | 3100 ± 400 | 2500 ± 500 |  |  |  |  |  |  |  |  |  |  |  |  |  |  |  |  | inhibition at 10 µM (HOP-62; HOP-62 (Non-Small Cell Lung Cancer), NCI one dose 10 µM): 0%; inhibition at 10 µM (SR; SR (Leukemia), NCI one dose 10 µM): 16.4%; inhibition at 10 µM (786-0; 786-0 (Renal Cancer), NCI one dose 10 µM): 0.75%; inhibition at 10 µM (MDA-MB-468; MDA-MB-468 (Breast Cancer), NCI one dose 10 µM): 0%; inhibition at 10 µM (RPMI-8226; RPMI-8226 (Leukemia), NCI one dose 10 µM): 36%; inhibition at 10 µM (CAKI-1; CAKI-1 (Renal Cancer), NCI one dose 10 µM): 2.96%; inhibition at 10 µM (A498; A498 (Renal Cancer), NCI one dose 10 µM): 0%; inhibition at 10 µM (EKVX; EKVX (Non-Small Cell Lung Cancer), NCI one dose 10 µM): 0%; inhibition at 10 µM (MDA-MB-435; MDA-MB-435 (Melanoma), NCI one dose 10 µM): 0%; inhibition at 10 µM (HS 578T; HS 578T (Breast Cancer), NCI one dose 10 µM): 3.94%; inhibition at 10 µM (UACC-62; UACC-62 (Melanoma), NCI one dose 10 µM): 4.99%; inhibition at 10 µM (OVCAR-3; OVCAR-3 (Ovarian Cancer), NCI one dose 10 µM): 0%; inhibition at 10 µM (SN12C; SN 12C (Renal Cancer), NCI one dose 10 µM): 5.25%; inhibition at 10 µM (SK-MEL-2; SK-MEL-2 (Melanoma), NCI one dose 10 µM): 0%; inhibition at 10 µM (ACHN; ACHN (Renal Cancer), NCI one dose 10 µM): 3.66%; inhibition at 10 µM (U251; U251 (CNS Cancer), NCI one dose 10 µM): 6.84%; inhibition at 10 µM (NCI-H226; NCI-H226 (Non-Small Cell Lung Cancer), NCI one dose 10 µM): 1.84%
